According to patent US10160762B2, “6-alkyl dihydropyrazolopyrimidinone compounds as PDE2 inhibitors” (Merck Sharp & Dohme Corp., priority 2015, dated 2018):

Target: T1, human PDE2A1 (Homo sapiens, UniProt O00408)
T1 construct: GST; purchased BPS Bioscience (San Diego, Calif.) 60020; host or cells: insect cells
Assay: IMAP FP PDE assay, human PDE2A1
Type: biochemical
Settings: Lab B; read-out: Human PDE2 Ki (nM) Lab B
Procedure, shortened: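 GST-tagged human PDE2A1 from insect cells; substrate 50 nM FAM-cAMP containing 1000 nM cGMP in Tris pH 7.2/MgCl2/DTT buffer, enzyme giving 20% conversion. 60 min at room temperature, IMAP binding reagent, fluorescence polarization read. Apparent Ki from FP readings using apparent KM 10,000 nM; ten-point 3-fold titrations.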

T1 sequence (O00408 1-920 isoform O00408-2): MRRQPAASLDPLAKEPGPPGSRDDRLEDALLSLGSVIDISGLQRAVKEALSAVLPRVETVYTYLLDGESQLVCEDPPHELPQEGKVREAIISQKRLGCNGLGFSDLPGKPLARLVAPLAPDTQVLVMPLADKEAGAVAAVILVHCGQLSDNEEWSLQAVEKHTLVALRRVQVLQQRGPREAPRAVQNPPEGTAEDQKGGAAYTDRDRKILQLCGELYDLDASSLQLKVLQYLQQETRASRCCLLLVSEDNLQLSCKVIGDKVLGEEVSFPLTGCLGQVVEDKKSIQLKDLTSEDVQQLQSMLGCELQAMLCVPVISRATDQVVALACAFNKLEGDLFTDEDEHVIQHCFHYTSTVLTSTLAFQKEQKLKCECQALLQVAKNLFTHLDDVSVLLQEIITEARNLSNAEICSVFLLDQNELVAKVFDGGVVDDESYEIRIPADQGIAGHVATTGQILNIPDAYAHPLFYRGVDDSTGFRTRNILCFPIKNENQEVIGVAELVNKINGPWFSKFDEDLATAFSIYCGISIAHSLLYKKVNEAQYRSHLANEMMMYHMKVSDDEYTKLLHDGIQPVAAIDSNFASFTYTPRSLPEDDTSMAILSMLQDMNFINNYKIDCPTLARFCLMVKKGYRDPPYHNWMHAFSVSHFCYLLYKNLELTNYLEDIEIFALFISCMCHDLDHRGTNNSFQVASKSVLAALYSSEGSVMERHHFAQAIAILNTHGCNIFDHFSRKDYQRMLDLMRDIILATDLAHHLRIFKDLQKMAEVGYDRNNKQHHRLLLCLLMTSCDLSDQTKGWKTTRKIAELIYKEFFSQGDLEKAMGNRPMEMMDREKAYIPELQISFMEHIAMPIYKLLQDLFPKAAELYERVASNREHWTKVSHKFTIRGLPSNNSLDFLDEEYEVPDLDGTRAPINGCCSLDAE

With `Cc1nc2c(c(CC#N)nn2C(C)c2ccc(C(F)(F)F)cc2)c(=O)[nH]1` (single isomer, unassigned) [Example 280] the Ki was 77 nM.
Molecule `Cc1nc2c(c(CO)nn2C(c2ccc(C(F)(F)F)c(F)c2)C2CC2)c(=O)[nH]1` (single isomer, unassigned) [Example 90, (R)- or (S)-1-(Cyclopropyl(3-fluoro-4-(trifluoromethyl)phenyl)methyl)-3-(hydroxymethyl)-6-methyl-1H-pyrazolo[3,4-d]pyrimidin-4(5H)-one] has a Ki of 78 nM.
`Cc1nc2c(c(CO)nn2C(C)c2ccc(OC(F)F)cc2)c(=O)[nH]1` (single isomer, unassigned) [Example 21, (S)- or (R)-1-(1-(4-(Difluoromethoxy)phenyl)ethyl)-3-(hydroxymethyl)-6-methyl-1H-pyrazolo[3,4-d]pyrimidin-4(5H)-one] was tested, and the Ki was 3.5 nM.
`Cc1nc2c(c(CO)nn2C(c2ccc(C(C)(C)C)cc2)C2CC2)c(=O)[nH]1` (single isomer, unassigned) [Example 88, (R)- or (S)-1-((4-tert-Butylphenyl)(cyclopropyl)methyl)-3-(hydroxymethyl)-6-methyl-1H-pyrazolo[3,4-d]pyrimidin-4(5H)-one] was tested, and the Ki was 45 nM.
For `Cc1nc2c(c(CO)nn2C2(c3ccc(C(F)(F)F)cc3)CCC2)c(=O)[nH]1` [Example 78, 3-(Hydroxymethyl)-6-methyl-1-(1-(4-(trifluoromethyl)phenyl)cyclobutyl)-1H-pyrazolo[3,4-d]pyrimidin-4(5H)-one], the Ki was 4.9 nM.
`Cc1nc2c(c(CCO)nn2C(C)c2ccc(C(F)(F)F)cc2)c(=O)[nH]1` (single isomer, unassigned) [Example 250] showed a Ki of 1.9 nM.
